{"source": "patent US20060029555A1", "about": "“Compositions and methods for prevention of photoaging” (priority 2002, published 2006)", "system": "human elastin promoter", "experiment": "Transgenic mouse model of photoaging: human elastin promoter/CAT reporter activity after solar simulating radiation", "type": "in vivo, transgenic mice", "details": "topical application to backs about fifteen minutes before 20 MEDs of SSR, three consecutive days; CAT activity 24 hours after third phototreatment, compared with vehicle alone", "protocol": "These mice express human elastin promoter activity in a tissue-specific and developmentally regulated manner. […] In addition, quantitative data can be obtained after only a single exposure to ultraviolet radiation. […] The transgenic mouse is then exposed to solar radiation and human elastin promoter activity in the mouse is determined.\nApproximately fifteen minutes after topical application, the mice are exposed to 20 human minimal erythema doses (MEDs) of solar simulating radiation (SSR). […] This procedure is repeated over three consecutive days.\nMice are then sacrificed and skin harvested for determination of CAT activity 24 hours after the third phototreatment. […]\nTo measure the expression of the human elastin promoter/CAT reporter gene construct in the skin of transgenic mice and in fibroblast cultures established from these animals, CAT activity is determined. […] The homogenates are centrifuged at 10,000 ×g for 15 minutes at 4° C. and the protein concentration in the supernatant determined by a commercial protein assay kit (Bio-Rad Laboratories, Richmond, Calif.). […] The acetylated and non-acetylated forms of radioactive chloramphenicol are separated by thin-layer chromatography and CAT activity is determined by the radioactivity in the acetylated forms as a percent of the total radioactivity in each sample."}
{"smiles": "Cn1c(=O)c2c(ncn2C)n(C)c1=O", "note": "[caffeine]", "values": [{"measurement": "protection against photoaging and other sun-damage (human elastin promoter activity, CAT activity in skin)", "result": "provides protection against photoaging and other sun-damage such as sunburn"}]}
